According to ChEMBL document CHEMBL4665919, “Novel Tricyclic Pyroglutamide Derivatives as Potent RORγt Inverse Agonists Identified using a Virtual Screening Approach” (ACS Med Chem Lett, 2020):

Assays:
[1] = AUC in BALB/c mouse at 4 mg/kg, po; format: ADME, organism-based; parameters: dose 4 mg/kg; conditions: in vivo
[2] = Volume of distribution at steady state in BALB/c mouse at 2 mg/kg, iv; format: ADME, organism-based; conditions: in vivo, read-out: Vdss
[3] = Tmax in BALB/c mouse at 4 mg/kg, po; format: ADME, organism-based; conditions: in vivo
[4] = target: T1, Nuclear receptor ROR-alpha (Homo sapiens, UniProt P35398); experiment: Inverse agonist activity at Gal4-fused RORalpha (unknown origin)
T1 sequence (P35398 whole entry): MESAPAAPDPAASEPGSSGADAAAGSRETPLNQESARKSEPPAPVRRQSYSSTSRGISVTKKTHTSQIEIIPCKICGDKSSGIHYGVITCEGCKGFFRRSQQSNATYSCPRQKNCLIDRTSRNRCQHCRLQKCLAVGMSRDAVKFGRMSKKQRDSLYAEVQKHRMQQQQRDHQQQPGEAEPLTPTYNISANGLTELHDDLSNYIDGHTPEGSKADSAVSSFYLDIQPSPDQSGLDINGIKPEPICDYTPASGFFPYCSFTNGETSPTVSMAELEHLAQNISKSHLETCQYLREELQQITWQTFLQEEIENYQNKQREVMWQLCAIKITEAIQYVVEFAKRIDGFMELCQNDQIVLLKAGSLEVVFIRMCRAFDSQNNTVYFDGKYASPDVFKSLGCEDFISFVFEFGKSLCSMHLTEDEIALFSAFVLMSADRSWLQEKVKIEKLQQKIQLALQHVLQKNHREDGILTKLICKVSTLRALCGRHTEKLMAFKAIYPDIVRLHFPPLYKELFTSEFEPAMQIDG

[5] = Permeability across apical to basolateral side in human Caco2 cells; format: ADME, cell-based; conditions: Caco-2, read-out: permeability
Cytochrome P450 2C9 = Cytochrome P450 2C9 (Homo sapiens, UniProt P11712); experiment: Inhibition of CYP2C9 (unknown origin); format: ADME
Cytochrome P450 2C9, sequence (P11712 whole entry): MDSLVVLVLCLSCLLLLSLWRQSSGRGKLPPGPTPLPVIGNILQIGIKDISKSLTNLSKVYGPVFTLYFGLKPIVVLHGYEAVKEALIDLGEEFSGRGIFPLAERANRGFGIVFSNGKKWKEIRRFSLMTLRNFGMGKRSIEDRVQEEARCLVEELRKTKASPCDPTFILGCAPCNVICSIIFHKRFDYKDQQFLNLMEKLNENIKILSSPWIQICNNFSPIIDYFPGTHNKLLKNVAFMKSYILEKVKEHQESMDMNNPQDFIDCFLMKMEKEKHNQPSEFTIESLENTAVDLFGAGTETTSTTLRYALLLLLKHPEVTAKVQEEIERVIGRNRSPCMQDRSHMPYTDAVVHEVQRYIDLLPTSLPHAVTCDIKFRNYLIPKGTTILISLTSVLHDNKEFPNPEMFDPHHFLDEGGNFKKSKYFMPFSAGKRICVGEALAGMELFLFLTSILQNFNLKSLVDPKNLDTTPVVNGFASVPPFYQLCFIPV

[6] = Cmax in BALB/c mouse at 4 mg/kg, po; format: ADME, organism-based; parameters: route oral, dose 4 mg/kg; conditions: in vivo
Cytochrome P450 2C8 = target: T2, Cytochrome P450 2C8 (Homo sapiens, UniProt P10632); experiment: Inhibition of CYP2C8 (unknown origin); format: ADME
T2 sequence (P10632 whole entry): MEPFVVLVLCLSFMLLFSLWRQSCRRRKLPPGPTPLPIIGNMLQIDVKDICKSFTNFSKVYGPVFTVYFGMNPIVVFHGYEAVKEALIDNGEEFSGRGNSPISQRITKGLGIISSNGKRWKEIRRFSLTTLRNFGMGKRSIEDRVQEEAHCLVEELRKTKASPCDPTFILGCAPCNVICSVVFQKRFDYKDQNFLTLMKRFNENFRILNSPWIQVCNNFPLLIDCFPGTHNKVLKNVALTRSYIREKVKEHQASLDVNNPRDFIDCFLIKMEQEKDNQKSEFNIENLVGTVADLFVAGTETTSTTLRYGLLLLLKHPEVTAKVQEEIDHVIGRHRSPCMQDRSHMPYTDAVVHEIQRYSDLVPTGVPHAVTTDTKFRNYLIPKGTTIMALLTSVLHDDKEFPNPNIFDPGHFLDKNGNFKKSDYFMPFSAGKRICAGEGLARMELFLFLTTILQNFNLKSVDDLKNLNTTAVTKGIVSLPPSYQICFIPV

Cytochrome P450 3A4 = Cytochrome P450 3A4 (Homo sapiens, UniProt P08684); experiment: Inhibition of CYP3A4 (unknown origin); format: ADME
Cytochrome P450 3A4, sequence (P08684 whole entry): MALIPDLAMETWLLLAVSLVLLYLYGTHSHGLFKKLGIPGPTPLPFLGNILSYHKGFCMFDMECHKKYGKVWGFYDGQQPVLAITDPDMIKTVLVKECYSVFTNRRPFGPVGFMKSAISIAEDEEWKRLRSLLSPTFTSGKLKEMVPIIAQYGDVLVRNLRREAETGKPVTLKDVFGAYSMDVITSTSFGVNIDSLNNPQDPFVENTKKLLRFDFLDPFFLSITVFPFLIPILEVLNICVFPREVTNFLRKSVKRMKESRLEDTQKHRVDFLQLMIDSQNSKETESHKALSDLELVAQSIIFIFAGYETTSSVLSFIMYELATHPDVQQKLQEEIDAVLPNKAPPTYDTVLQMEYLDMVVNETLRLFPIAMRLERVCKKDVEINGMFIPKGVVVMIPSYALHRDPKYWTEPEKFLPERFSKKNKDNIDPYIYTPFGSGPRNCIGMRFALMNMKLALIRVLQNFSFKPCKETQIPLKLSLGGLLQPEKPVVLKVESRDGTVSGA

[7] = Half life in BALB/c mouse at 2 mg/kg, iv; format: ADME, organism-based; conditions: in vivo
[8] = Protein binding in mouse; format: ADME, organism-based; conditions: in vivo
[9] = AUC in BALB/c mouse at 4 mg/kg, po measured upto 72 hrs; format: ADME, organism-based; parameters: route oral, dose 4 mg/kg, time <=72; conditions: in vivo
[10] = Half life in mouse liver microsomes; format: ADME, Microsome
Cytochrome P450 2D6 = Cytochrome P450 2D6 (Homo sapiens, UniProt P10635); experiment: Inhibition of CYP2D6 (unknown origin); format: ADME
Cytochrome P450 2D6, sequence (P10635 whole entry): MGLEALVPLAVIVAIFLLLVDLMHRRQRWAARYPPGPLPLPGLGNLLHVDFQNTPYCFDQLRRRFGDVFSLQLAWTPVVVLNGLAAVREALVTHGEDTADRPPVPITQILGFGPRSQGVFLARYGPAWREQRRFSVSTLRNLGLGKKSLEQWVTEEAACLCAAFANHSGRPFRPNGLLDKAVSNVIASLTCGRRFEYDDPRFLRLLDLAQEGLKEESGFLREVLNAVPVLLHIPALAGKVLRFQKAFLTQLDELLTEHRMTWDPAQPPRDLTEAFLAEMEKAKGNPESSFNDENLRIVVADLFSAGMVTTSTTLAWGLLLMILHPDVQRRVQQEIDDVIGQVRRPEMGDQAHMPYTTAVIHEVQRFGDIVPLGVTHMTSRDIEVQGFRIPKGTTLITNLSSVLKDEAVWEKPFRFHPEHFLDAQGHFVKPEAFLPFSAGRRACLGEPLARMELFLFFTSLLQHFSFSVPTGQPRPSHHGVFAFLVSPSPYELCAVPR

Cytochrome P450 1A2 = target: T3, Cytochrome P450 1A2 (Homo sapiens, UniProt P05177); experiment: Inhibition of CYP1A2 (unknown origin); format: ADME
T3 sequence (P05177 whole entry): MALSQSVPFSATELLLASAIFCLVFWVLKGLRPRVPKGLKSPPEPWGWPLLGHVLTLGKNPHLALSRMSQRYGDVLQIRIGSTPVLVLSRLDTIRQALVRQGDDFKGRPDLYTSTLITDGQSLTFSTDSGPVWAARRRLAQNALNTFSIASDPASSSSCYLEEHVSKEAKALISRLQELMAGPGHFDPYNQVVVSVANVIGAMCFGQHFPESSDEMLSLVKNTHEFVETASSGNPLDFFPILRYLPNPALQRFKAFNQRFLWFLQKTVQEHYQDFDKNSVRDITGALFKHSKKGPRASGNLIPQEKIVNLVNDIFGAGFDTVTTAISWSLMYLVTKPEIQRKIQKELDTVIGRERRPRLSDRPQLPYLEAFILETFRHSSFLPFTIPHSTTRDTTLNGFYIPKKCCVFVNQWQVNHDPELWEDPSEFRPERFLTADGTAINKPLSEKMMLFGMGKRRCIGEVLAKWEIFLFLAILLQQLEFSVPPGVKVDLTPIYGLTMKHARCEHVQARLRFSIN

[11] = Drug concentration in BALB/c mouse at 4 mg/kg, po measured upto 24 hrs; format: ADME, organism-based; conditions: in vivo, read-out: Drug uptake
[12] = Half life in rat liver microsomes; format: ADME, Microsome
[13] = Kinetic solubility of compound in acetate buffer at pH 6.5; format: physicochemical; conditions: read-out: Kinetic_solubility
[14] = Permeability across basolateral to apical side in human Caco2 cells; format: ADME, cell-based; conditions: Caco-2, read-out: permeability
[15] = AUC in BALB/c mouse at 2 mg/kg, iv measured upto 72 hrs; format: ADME, organism-based; parameters: route intravenous, dose 2 mg/kg, time <=72; conditions: in vivo
[16] = Protein binding in human; format: ADME
[17] = Oral bioavailability in BALB/c mouse at 4 mg/kg; format: ADME, organism-based; conditions: in vivo
[18] = target: T4, Nuclear receptor subfamily 1 group I member 2 (Homo sapiens, UniProt O75469); experiment: Inverse agonist activity at PXR (unknown origin)
T4 sequence (O75469 whole entry): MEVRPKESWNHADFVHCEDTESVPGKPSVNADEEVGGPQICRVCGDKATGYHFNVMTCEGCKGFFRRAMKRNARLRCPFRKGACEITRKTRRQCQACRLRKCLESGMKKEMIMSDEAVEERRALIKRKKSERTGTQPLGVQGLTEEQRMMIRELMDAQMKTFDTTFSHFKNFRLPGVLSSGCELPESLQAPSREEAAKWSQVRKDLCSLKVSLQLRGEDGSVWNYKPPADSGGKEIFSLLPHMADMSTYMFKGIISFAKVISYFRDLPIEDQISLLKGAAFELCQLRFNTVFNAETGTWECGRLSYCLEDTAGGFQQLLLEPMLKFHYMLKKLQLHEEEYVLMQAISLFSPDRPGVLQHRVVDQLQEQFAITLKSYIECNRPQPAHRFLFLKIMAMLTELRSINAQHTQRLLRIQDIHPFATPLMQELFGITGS

Work on `CC(C)(O)CN1C(=O)[C@H](F)C[C@H]1C(=O)N1CC[C@@]2(S(=O)(=O)c3ccc(F)cc3)c3ccc(C(F)(C(F)(F)F)C(F)(F)F)cc3CC[C@@H]12` yielded an AUC [1] of 44.4 µM·h, a Vd [2] of 2.7 L/kg and a Tmax [3] of 4.3 h. For the same compound, the EC50 [4] was over 10 µM, the Papp A→B [5] was 9.3 ×10⁻⁶ cm/s and the IC50 (Cytochrome P450 2C9) was 4.9 µM. For the same compound, the Cmax [6] was 2200 nM, the IC50 (Cytochrome P450 2C8) was over 20 µM and the IC50 (Cytochrome P450 3A4) was over 20 µM. The half-life [7] was 15 h, the fraction unbound [8] was 1.3% and the AUC at 72 h [9] was 43.9 µM·h. It also gave a half-life [10] of over 2 h, an IC50 (Cytochrome P450 2D6) of over 20 µM and an IC50 (Cytochrome P450 1A2) of over 20 µM. It also gave a concentration at 24 h [11] of 620 nM, a half-life [12] of over 2 h and a solubility kinetic [13] of under 1 µg/mL. It also gave a Papp B→A [14] of 19 ×10⁻⁶ cm/s, an AUC at 72 h [15] of 23 µM·h and a fraction unbound [16] of 0.025. The bioavailability [17] was 94% and the EC50 [18] was over 50 µM.
